Among the data in ChEMBL document CHEMBL5226340, “Chemical Biology of Sortase A Inhibition: A Gateway to Anti-infective Therapeutic Agents” (J Med Chem, 2021) are IC50, Ratio and MIC values, retold here.

The term IC50 denotes the point on the concentration scale where inhibition reaches its midpoint. In general, MIC refers to the least concentration at which growth counts as inhibited. Low values mean a more susceptible organism, high ones a less susceptible organism.

The target of assay [1] is T1, Sortase A (Staphylococcus aureus, UniProt Q9S446).
T1 sequence (Q9S446 whole entry): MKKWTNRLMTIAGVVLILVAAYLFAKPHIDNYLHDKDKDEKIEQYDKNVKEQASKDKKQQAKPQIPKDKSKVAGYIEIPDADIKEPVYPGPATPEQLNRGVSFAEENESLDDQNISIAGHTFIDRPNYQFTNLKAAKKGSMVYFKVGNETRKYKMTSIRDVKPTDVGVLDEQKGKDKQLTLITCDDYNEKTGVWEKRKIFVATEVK
As to the kind of experiment: Inhibition of Staphylococcus aureus SrtA catalytic domain (60 to 206 residues) using Abz-LPETGDap(Dnp)-NH2 as substrate preincubated for 1 hr followed by substrate addition and measured immediately by FRET assay.

Assay [2] concerns the target T2, Sortase A (Staphylococcus aureus) (UniProt Q9S446).
T2 sequence (whole entry): T1 sequence (Q9S446 whole entry)
As to the kind of experiment: Binding affinity to Staphylococcus aureus SrtA assessed as kinact/ki.

Another assay concerns Staphylococcus aureus. As to the kind of experiment: Antibacterial activity against Staphylococcus aureus. Type of assay: functional.
Assay [3] addresses T1, Sortase A. The assay is described as follows: Inhibition of Staphylococcus aureus SrtA.
For assay [4], the target named is T1, Sortase A. The assay is described as follows: Inhibition of Staphylococcus aureus SrtA using EDANS-Dabcyl as substrate by FRET assay.
Assay [5] concerns the target T1, Sortase A. As to the kind of experiment: Inhibition of C-terminal 6His-tagged recombinant Staphylococcus aureus SrtA with 1 to 59 residues truncated from N-terminus expressed in Escherichia coli BL21 (DE3) using dabcyl-QALPETGEE-edans as substrate preincubated for 1 hr followed by substrate addition and measured for 1 hr by FRET assay.

In brackets after ≈: the same amount, converted by molar mass. Some results are limits rather than exact numbers.

The molecule `CCOc1c(SSc2cnn(-c3cccc(F)c3)c(=O)c2OCC)cnn(-c2cccc(F)c2)c1=O` registered an IC50 against Sortase A [1] of 160 nM.
At Sortase A [1], `CCOc1c(SSc2cnn(-c3cccc(C(=N)N)c3)c(=O)c2OCC)cnn(-c2cccc(C(=N)N)c2)c1=O` had an IC50 of 540 nM. Besides, the Ratio in assay [2] is 3.6 10^4/M/min.
Take `CCSSc1ccccc1C(=O)NCC(=O)Nc1ccc(F)cc1`: the Ratio in assay [2] is 6.14 10^4/M/min.
In turn, `COc1ccc(-c2cc(=O)c3c(O)cc(O)cc3o2)cc1` [ACACETIN] gave an MIC in the assay with Staphylococcus aureus greater than 3600 µM. In addition, the IC50 against Sortase A [3] came out at 128 µM.
At Sortase A [3], `COc1c(O)c2c(c3c1O[C@@]1(O)C(C)(C)[C@H](C)O[C@@]31O)C(=O)C(C)=CC2=O` came in with an IC50 of 23.6 µM.
Regarding `O=c1c(OCCCO)c(SSc2cnn(-c3cccc(F)c3)c(=O)c2OCCCO)cnn1-c1cccc(F)c1`, on Sortase A [1], inhibition was half-maximal at 20 nM (IC50). The Ratio in assay [2] is 1.8 10^4/M/min.
`C[C@@H]1O[C@@H](OC2=C(c3ccc(O)c(O)c3)Oc3cc(O)cc(O)c3[C@@H]2O)[C@H](O)[C@H](O)[C@H]1O` displayed an IC50 against Sortase A [4] of 71.8 µM.
Consider `O=C(/C=C/c1ccc(O)cc1)CC(=O)/C=C/c1ccc(O)cc1` [BISDEMETHOXYCURCUMIN], for which the IC50 at Sortase A [4] came to 103 µM. The molecule also yielded an MIC against Staphylococcus aureus greater than 543 µM.
Consider `COc1cc(/C=C/C(=O)CC(=O)/C=C/c2ccc(O)c(OC)c2)ccc1O` [CURCUMIN], for which, in the assay with Staphylococcus aureus, the MIC was greater than 543 µM.
On Sortase A [4], `COc1cc(/C=C/C(=O)CC(=O)/C=C/c2ccc(O)cc2)ccc1O` showed an IC50 of 70.3 µM. Further, in the assay on Staphylococcus aureus, the MIC was greater than 543 µM.
In turn, `COc1cc(/C=C/C(=O)O)ccc1O` [FERULATE] returned a minimal inhibitory concentration (MIC) against Staphylococcus aureus greater than 5750 µM. This molecule came in with a half-inhibitory concentration (IC50) on Sortase A [3] of 1320 µM.
For `CCSSc1ccccc1C(=O)NCC(=O)Nc1cccc(Oc2ccccc2)c1`, the Ratio in assay [2] was 7.24 10^4/M/min.
At Sortase A [1], `O=c1c(OCCO)c(SSc2cnn(-c3ccccc3)c(=O)c2OCCO)cnn1-c1ccccc1` registered an IC50 of 220 nM.
For `CCSSc1ccccc1C(=O)NCC(=O)N(C1CCCCC1)C1CCCCC1`, in assay [2], the Ratio is 6.39 10^4/M/min.
On the same count and under the same terms, with `CCSSc1ccccc1C(=O)N[C@H](CC(=O)O)C(=O)Nc1cccc(Oc2ccccc2)c1` the figure was 8.21 10^4/M/min.
On Sortase A [1], `CCOc1c(SSc2cnn(-c3cccc(OC)c3)c(=O)c2OCC)cnn(-c2cccc(OC)c2)c1=O` returned an IC50 of 620 nM.
In the assay with Staphylococcus aureus, `O=c1cc(CO)oc(C(Nc2ccccn2)c2ccc(F)cc2)c1O` (stereo unspecified) registered an MIC greater than 1580 µM. Also, the Ratio in assay [2] was 1.4 10^3/M/min.
Take `CC(=O)/C(=N/Nc1ccc([N+](=O)[O-])cc1)C(=O)O`: in the assay with Staphylococcus aureus, the MIC is greater than 270 µM. For the same molecule, on Sortase A [5], the IC50 was found to be 57 µM.
On to `O=c1cc(CO)oc(C(Nc2ccccn2)c2cccc(F)c2)c1O` (stereo unspecified), for which the MIC against Staphylococcus aureus is greater than 1580 µM. Moreover, the Ratio in assay [2] was 2.4 10^3/M/min.
As to `O=C(/C=C/c1ccc(O)c(O)c1)O[C@@H]1C[C@](O)(C(=O)O)C[C@@H](O)[C@H]1O` [CHLOROGENIC ACID], on Sortase A [4], the IC50 was 95.6 µM. In the assay with Staphylococcus aureus, inhibition of growth (MIC) required 2900 µM (≈ 1030 µg/mL).
The molecule `O=C1N[C@H](c2c[nH]c3cc(Br)ccc23)CN=C1c1c[nH]c2ccccc12` yielded an IC50 at Sortase A [4] of 83.2 µM.
For `CCn1nc(C)cc1C(=O)/C(=N/Nc1ccc(Cl)c(Cl)c1)C(=O)O`, the IC50 on Sortase A [5] is greater than 200 µM.
On Sortase A [1], `O=c1c(OCCCO)c(SSc2cnn(-c3ccccc3)c(=O)c2OCCCO)cnn1-c1ccccc1` displayed an IC50 of 840 nM.
`COc1ccc(C(Nc2ccccn2)c2oc(CO)cc(=O)c2O)cc1` (stereo unspecified): the MIC with Staphylococcus aureus is greater than 1440 µM. The Ratio in assay [2] was 1.8 10^3/M/min.
The molecule `CCOc1c(S)cnn(-c2ccccc2)c1=O` had an IC50 at Sortase A [1] of 35000 nM.
On to `O=c1cc(CO)oc(C(Nc2ccccn2)c2ccc(C(F)(F)F)cc2)c1O` (stereo unspecified), for which, in the assay on Staphylococcus aureus, the MIC was greater than 1300 µM. Also, the Ratio in assay [2] was 1.7 10^3/M/min.
The molecule `O=C(O)/C=C/c1ccc(O)c(O)c1` [CAFFEIC ACID] yielded an MIC in the assay with Staphylococcus aureus greater than 5750 µM. At Sortase A [3], the IC50 is 860 µM.
Turning to `CCSSc1ccccc1C(=O)NCC(=O)NCC1CCCCC1`, the Ratio in assay [2] was 7.13 10^4/M/min.
In the assay on Staphylococcus aureus, `O=c1cc(CO)oc(C(Nc2ccccn2)c2ccsc2)c1O` (stereo unspecified) displayed a minimal inhibitory concentration (MIC) greater than 1550 µM. For the same molecule, the Ratio in assay [2] is 0.7 10^3/M/min.
For `O=c1c(OCCO)c(SSc2cnn(-c3cccc(F)c3)c(=O)c2OCCO)cnn1-c1cccc(F)c1`, half-maximal inhibition on Sortase A [1] (IC50) was put at 410 nM.
In the assay with Staphylococcus aureus, `CC(=O)/C(=N/Nc1ccc(Cl)c(Cl)c1)C(=O)O` registered a minimum inhibitory concentration (MIC) greater than 270 µM. In addition, the IC50 at Sortase A [5] worked out at 50 µM.
